Consider 1 compound from PMC5218480 (PLoS ONE, 2017).

The subject of this test is MV-4-11 cells. Kind of test: Gene expression microarray analysis (Affymetrix PrimeView) and GSEA. In kind it is cell-based, human. To be noted: ProbeSet 11739106_a_at; LIST B. Also noted: RFU PODN (11730768_x_at) / Fold change /veh PODN (11730768_x_at) / RFU LINC00158 (11744669_a_at) / Fold change /veh LINC00158 (11744669_a_at) / RFU DUSP10 (11751237_a_at) / Fold change /veh DUSP10 (11751237_a_at) / RFU ID3 (11757404_x_at) / Fold change /veh ID3 (11757404_x_at) / RFU PLEKHG5 (11737974_s_at) / Fold change /veh PLEKHG5 (11737974_s_at) / RFU LRRC4B (11730491_at) / Fold change /veh LRRC4B (11730491_at) / RFU GIMAP4 (11747438_a_at) / Fold change /veh GIMAP4 (11747438_a_at) / RFU KRT8 (11758183_x_at) / Fold change /veh KRT8 (11758183_x_at) / RFU CNN1 (11734310_a_at) / Fold change /veh CNN1 (11734310_a_at) / RFU VPS37D (11726825_at) / Fold change /veh VPS37D (11726825_at) / RFU C10orf10 (11716522_x_at) / Fold change /veh C10orf10 (11716522_x_at) / RFU KIR2DL2 /// KIR2DL4 /// KIR2DL5A /// KIR2DL5B /// KIR2DS1 /// KIR2DS2 /// KIR2DS3 /// KIR2DS4 /// KIR3DL3 /// KIR3DL3 /// KIR3DS1 (11738374_at) / Fold change /veh KIR2DL2 /// KIR2DL4 /// KIR2DL5A /// KIR2DL5B /// KIR2DS1 /// KIR2DS2 /// KIR2DS3 /// KIR2DS4 /// KIR3DL3 /// KIR3DL3 /// KIR3DS1 (11738374_at) / RFU C1QL1 (11718748_at) / Fold change /veh C1QL1 (11718748_at) / RFU TMPRSS4 (11747572_a_at) / Fold change /veh TMPRSS4 (11747572_a_at) / RFU HAMP (11756126_x_at) / Fold change /veh HAMP (11756126_x_at) / RFU RNFT2 (11725882_a_at) / Fold change /veh RNFT2 (11725882_a_at) / RFU NR4A2 (11747474_a_at) / Fold change /veh NR4A2 (11747474_a_at) / RFU ABCC12 (11746883_a_at) / Fold change /veh ABCC12 (11746883_a_at) / RFU TMEM136 (11760407_x_at) / Fold change /veh TMEM136 (11760407_x_at) / RFU CLDN22 /// WWC2 (11732394_at) / Fold change /veh CLDN22 /// WWC2 (11732394_at) / RFU HLA-DPB1 (11760878_x_at) / Fold change /veh HLA-DPB1 (11760878_x_at) / RFU SPINT1 (11716480_a_at) / Fold change /veh SPINT1 (11716480_a_at) / RFU GAP43 (11754022_s_at) / Fold change /veh GAP43 (11754022_s_at) / RFU A4GNT (11735810_at) / Fold change /veh A4GNT (11735810_at) / RFU PRB3 (11715151_x_at) / Fold change /veh PRB3 (11715151_x_at) / RFU TUBB4B (11761932_at) / Fold change /veh TUBB4B (11761932_at) / RFU CAPN14 (11732068_a_at) / Fold change /veh CAPN14 (11732068_a_at) / RFU TMCC2 (11721928_a_at) / Fold change /veh TMCC2 (11721928_a_at) / RFU IRGQ (11745062_a_at) / Fold change /veh IRGQ (11745062_a_at) / RFU FAM174B (11720279_a_at) / Fold change /veh FAM174B (11720279_a_at) / RFU TMPRSS4 (11748680_a_at) / Fold change /veh TMPRSS4 (11748680_a_at) / RFU FAM212B (11763350_a_at) / Fold change /veh FAM212B (11763350_a_at) / RFU PLEKHG5 (11743358_a_at) / Fold change /veh PLEKHG5 (11743358_a_at) / RFU ZSCAN30 (11745921_a_at) / Fold change /veh ZSCAN30 (11745921_a_at) / RFU CMKLR1 (11741424_a_at) / Fold change /veh CMKLR1 (11741424_a_at) / RFU LOC101060620 /// MAPK8IP1 (11723275_at) / Fold change /veh LOC101060620 /// MAPK8IP1 (11723275_at) / RFU SPTSSB (11747773_x_at) / Fold change /veh SPTSSB (11747773_x_at) / RFU PRSS12 (11739890_at) / Fold change /veh PRSS12 (11739890_at) / RFU BIN1 (11741810_x_at) / Fold change /veh BIN1 (11741810_x_at) / RFU WNT11 (11732464_a_at) / Fold change /veh WNT11 (11732464_a_at) / RFU C10orf10 (11716521_a_at) / Fold change /veh C10orf10 (11716521_a_at) / RFU C5orf56 (11738089_at) / Fold change /veh C5orf56 (11738089_at) / RFU CYB561 (11721691_x_at) / Fold change /veh CYB561 (11721691_x_at) / RFU ANKRD19P (11752326_a_at) / Fold change /veh ANKRD19P (11752326_a_at) / RFU OR2T12 /// OR2T33 /// OR2T8 (11738714_s_at) / Fold change /veh OR2T12 /// OR2T33 /// OR2T8 (11738714_s_at) / RFU VCAN (11748164_a_at) / Fold change /veh VCAN (11748164_a_at) / RFU JSRP1 (11732532_at) / Fold change /veh JSRP1 (11732532_at) / RFU KRTAP10-11 (11738290_x_at) / Fold change /veh KRTAP10-11 (11738290_x_at) / RFU MYO3A (11730013_a_at) / Fold change /veh MYO3A (11730013_a_at) / RFU EBF3 (11725865_a_at) / Fold change /veh EBF3 (11725865_a_at) / RFU CAMK2N1 (11719241_x_at) / Fold change /veh CAMK2N1 (11719241_x_at) / RFU C5orf56 (11738088_a_at) / Fold change /veh C5orf56 (11738088_a_at) / RFU OLFML3 (11715873_a_at) / Fold change /veh OLFML3 (11715873_a_at) / RFU LOC100653217 /// NTM (11731650_a_at) / Fold change /veh LOC100653217 /// NTM (11731650_a_at) / RFU MAPK11 (11762145_a_at) / Fold change /veh MAPK11 (11762145_a_at) / RFU FIZ1 (11724087_x_at) / Fold change /veh FIZ1 (11724087_x_at) / RFU OASL (11726364_x_at) / Fold change /veh OASL (11726364_x_at) / RFU SOX15 (11748057_x_at) / Fold change /veh SOX15 (11748057_x_at) / RFU CD79A (11719716_a_at) / Fold change /veh CD79A (11719716_a_at) / RFU HIST1H1D (11736915_at) / Fold change /veh HIST1H1D (11736915_at) / RFU CASKIN2 (11723855_a_at) / Fold change /veh CASKIN2 (11723855_a_at) / RFU LOC730098 (11760151_x_at) / Fold change /veh LOC730098 (11760151_x_at) / RFU OR4N2 (11742367_at) / Fold change /veh OR4N2 (11742367_at) / RFU PRRT2 (11749266_a_at) / Fold change /veh PRRT2 (11749266_a_at) / RFU SNX32 (11753110_a_at) / Fold change /veh SNX32 (11753110_a_at) / RFU CDHR5 (11726645_a_at) / Fold change /veh CDHR5 (11726645_a_at) / RFU RCAN1 (11760418_a_at) / Fold change /veh RCAN1 (11760418_a_at) / RFU FAM167A (11723789_a_at) / Fold change /veh FAM167A (11723789_a_at) / RFU FAM26E (11764081_at) / Fold change /veh FAM26E (11764081_at) / RFU ISYNA1 (11749810_s_at) / Fold change /veh ISYNA1 (11749810_s_at) / RFU ACY1 (11761880_at) / Fold change /veh ACY1 (11761880_at) / RFU 11764098_at / Fold change /veh 11764098_at / RFU SAMD14 (11745864_x_at) / Fold change /veh SAMD14 (11745864_x_at) / RFU NPB (11741838_a_at) / Fold change /veh NPB (11741838_a_at) / RFU TMPRSS6 (11731388_a_at) / Fold change /veh TMPRSS6 (11731388_a_at) / RFU KRTAP10-2 (11738614_at) / Fold change /veh KRTAP10-2 (11738614_at) / RFU ARHGAP8 /// PRR5-ARHGAP8 (11727945_x_at) / Fold change /veh ARHGAP8 /// PRR5-ARHGAP8 (11727945_x_at) / RFU KRTAP5-7 /// NADSYN1 (11734609_at) / Fold change /veh KRTAP5-7 /// NADSYN1 (11734609_at) / RFU RASL12 (11751679_a_at) / Fold change /veh RASL12 (11751679_a_at) / RFU CDKN2B (11736163_a_at) / Fold change /veh CDKN2B (11736163_a_at) / RFU PRF1 (11729649_at) / Fold change /veh PRF1 (11729649_at) / RFU, ZNF638 /// ZNF638-IT1 / Fold change vs veh, ZNF638 /// ZNF638-IT1 / RFU, PANK3 / Fold change vs veh, PANK3 / RFU, SH3YL1 / Fold change vs veh, SH3YL1 / RFU, ZEB2 / Fold change vs veh, ZEB2 / RFU, NRIP1 / Fold change vs veh, NRIP1 / RFU, PTTG1IP / Fold change vs veh, PTTG1IP / RFU, CAPN2 / Fold change vs veh, CAPN2 / RFU, MED14 / Fold change vs veh, MED14 / RFU, SNORA58 / Fold change vs veh, SNORA58 / RFU, C1orf63 / Fold change vs veh, C1orf63 / RFU, LRRFIP1 / Fold change vs veh, LRRFIP1 / RFU, NDUFAF7 / Fold change vs veh, NDUFAF7 / RFU, SLC12A2 / Fold change vs veh, SLC12A2 / RFU, IBTK / Fold change vs veh, IBTK / RFU, ESF1 / Fold change vs veh, ESF1 / Fold change vs veh, TMEM50B / RFU, TAOK1 / Fold change vs veh, TAOK1 / RFU, ACBD3 / Fold change vs veh, ACBD3 / RFU, TMA16 / Fold change vs veh, TMA16 / RFU, RWDD3 / Fold change vs veh, RWDD3 / RFU, BCAT1 / Fold change vs veh, BCAT1 / RFU, EDEM3 / Fold change vs veh, EDEM3 / RFU, TMEM33 / Fold change vs veh, TMEM33 / RFU, WDR75 / Fold change vs veh, WDR75 / RFU, AHCTF1 / Fold change vs veh, AHCTF1 / RFU, TFRC / Fold change vs veh, TFRC / RFU, ZDHHC17 / Fold change vs veh, ZDHHC17 / RFU, NOM1 / Fold change vs veh, NOM1 / RFU, ARL8B / Fold change vs veh, ARL8B / RFU, ZBTB11 / Fold change vs veh, ZBTB11 / RFU, TAMM41 / Fold change vs veh, TAMM41 / RFU, KIAA1704 /// LOC100996395 / Fold change vs veh, KIAA1704 /// LOC100996395 / RFU, ING1 / Fold change vs veh, ING1 / RFU, TRMT61B / Fold change vs veh, TRMT61B / RFU, FUBP3 / Fold change vs veh, FUBP3 / RFU, TP53 / Fold change vs veh, TP53 / RFU, TNKS2 / Fold change vs veh, TNKS2 / RFU, ZFP14 / Fold change vs veh, ZFP14 / RFU, ACTR2 / Fold change vs veh, ACTR2 / RFU, PPP3R1 / Fold change vs veh, PPP3R1 / RFU, PIK3R1 / Fold change vs veh, PIK3R1 / RFU, HNRNPA1 / Fold change vs veh, HNRNPA1 / RFU, RNF170 / Fold change vs veh, RNF170 / RFU, ZNF28 / Fold change vs veh, ZNF28 / RFU, RNGTT / Fold change vs veh, RNGTT / RFU, OGT / Fold change vs veh, OGT / RFU, BRD1 / Fold change vs veh, BRD1 / RFU, MARS / Fold change vs veh, MARS / RFU, ZNF655 / Fold change vs veh, ZNF655 / RFU, FAHD1 / Fold change vs veh, FAHD1 / RFU, BDP1 / Fold change vs veh, BDP1 / RFU, LRRCC1 / Fold change vs veh, LRRCC1 / RFU, ARID1A / Fold change vs veh, ARID1A / RFU, ZNF146 / Fold change vs veh, ZNF146 / RFU, ZNF330 / Fold change vs veh, ZNF330 / RFU, GPN3 / Fold change vs veh, GPN3 / RFU, C9orf123 / Fold change vs veh, C9orf123 / RFU, N4BP2L2 / Fold change vs veh, N4BP2L2 / RFU, ARFIP1 / Fold change vs veh, ARFIP1 / RFU, FAM179B / Fold change vs veh, FAM179B / RFU, BCL10 / Fold change vs veh, BCL10 / RFU, UHRF1BP1L / Fold change vs veh, UHRF1BP1L / RFU, BET1 / Fold change vs veh, BET1 / RFU, CNOT2 / Fold change vs veh, CNOT2 / RFU, ZNF268 / Fold change vs veh, ZNF268 / Fold change vs veh, ZNF507 / RFU, DGCR2 / Fold change vs veh, DGCR2 / RFU, WDSUB1 / Fold change vs veh, WDSUB1 / Fold change vs veh, HSP90B1 /// MIR3652 / RFU, ADSS / Fold change vs veh, ADSS / RFU, GK / Fold change vs veh, GK / RFU, ZNF148 / Fold change vs veh, ZNF148 / RFU, TAF9 / Fold change vs veh, TAF9 / RFU, SLC1A5 / Fold change vs veh, SLC1A5 / RFU, SLMO2 / Fold change vs veh, SLMO2 / RFU, ABCC4 / Fold change vs veh, ABCC4 / RFU, LOC101060439 /// RAP1B / Fold change vs veh, LOC101060439 /// RAP1B / RFU, RFX7 / Fold change vs veh, RFX7 / RFU, GTPBP10 / Fold change vs veh, GTPBP10 / RFU, CNEP1R1 / Fold change vs veh, CNEP1R1 / RFU, BIVM-ERCC5 /// ERCC5 / Fold change vs veh, BIVM-ERCC5 /// ERCC5 / RFU, ILF3 / Fold change vs veh, ILF3 / RFU 11762660_at / Fold change /veh 11762660_at / RFU VCAN (11757783_s_at) / Fold change /veh VCAN (11757783_s_at) / RFU DDX43 (11728927_at) / Fold change /veh DDX43 (11728927_at) / RFU KRT8 (11758188_x_at) / Fold change /veh KRT8 (11758188_x_at) / RFU NKD1 (11759106_at) / Fold change /veh NKD1 (11759106_at) / RFU SRD5A1 (11742802_a_at) / Fold change /veh SRD5A1 (11742802_a_at) / RFU TPSAB1 /// TPSB2 (11721975_s_at) / Fold change /veh TPSAB1 /// TPSB2 (11721975_s_at) / RFU GSTM3 (11746129_a_at) / Fold change /veh GSTM3 (11746129_a_at) / RFU IL23R (11737362_x_at) / Fold change /veh IL23R (11737362_x_at) / RFU TMEM51 (11727254_a_at) / Fold change /veh TMEM51 (11727254_a_at) / RFU PIWIL2 (11732686_x_at) / Fold change /veh PIWIL2 (11732686_x_at) / RFU ORM1 (11744905_x_at) / Fold change /veh ORM1 (11744905_x_at) / RFU CCDC152 (11743942_at) / Fold change /veh CCDC152 (11743942_at) / RFU ECM1 (11717891_a_at) / Fold change /veh ECM1 (11717891_a_at) / RFU IL23R (11748794_a_at) / Fold change /veh IL23R (11748794_a_at) / RFU TNFAIP8L3 (11732012_x_at) / Fold change /veh TNFAIP8L3 (11732012_x_at) / RFU MBOAT4 (11741988_at) / Fold change /veh MBOAT4 (11741988_at) / RFU 11764193_at / Fold change /veh 11764193_at / RFU TMEM53 (11763286_at) / Fold change /veh TMEM53 (11763286_at) / RFU MAGEB2 (11727129_at) / Fold change /veh MAGEB2 (11727129_at) / RFU TMEM200A (11744735_a_at) / Fold change /veh TMEM200A (11744735_a_at) / RFU CCDC152 (11751479_a_at) / Fold change /veh CCDC152 (11751479_a_at) / RFU FAM211A (11726209_a_at) / Fold change /veh FAM211A (11726209_a_at) / RFU RGS16 (11746705_a_at) / Fold change /veh RGS16 (11746705_a_at) / RFU VCAN (11755009_s_at) / Fold change /veh VCAN (11755009_s_at) / RFU RHOB (11743442_s_at) / Fold change /veh RHOB (11743442_s_at) / RFU RGS16 (11720943_a_at) / Fold change /veh RGS16 (11720943_a_at) / RFU RGS16 (11720944_at) / Fold change /veh RGS16 (11720944_at) / RFU, VPS4B / Fold change vs veh, VPS4B / RFU, CREB1 / Fold change vs veh, CREB1 / RFU, DNAJC13 / Fold change vs veh, DNAJC13 / RFU, GNAQ / Fold change vs veh, GNAQ / RFU, CDK5R1 / Fold change vs veh, CDK5R1 / RFU, ZRANB3 / Fold change vs veh, ZRANB3 / RFU, CUL4A / Fold change vs veh, CUL4A / RFU, CCNY / Fold change vs veh, CCNY / RFU, UFL1 / Fold change vs veh, UFL1 / RFU, COG3 / Fold change vs veh, COG3 / RFU, DIAPH2 / Fold change vs veh, DIAPH2 / RFU, SKA2 / Fold change vs veh, SKA2 / RFU, AFF3 / Fold change vs veh, AFF3 / RFU, LMF1 / Fold change vs veh, LMF1 / RFU, IPO11 / Fold change vs veh, IPO11 / RFU, DFFB / Fold change vs veh, DFFB / RFU, FOXP1 / Fold change vs veh, FOXP1 / RFU, CARD8 / Fold change vs veh, CARD8 / RFU, STRN3 / Fold change vs veh, STRN3 / RFU, ADK / Fold change vs veh, ADK / RFU, RASSF2 / Fold change vs veh, RASSF2 / RFU, WIPF1 / Fold change vs veh, WIPF1 / RFU, LARP1B / Fold change vs veh, LARP1B / RFU, RASA1 / Fold change vs veh, RASA1 / RFU, RB1 / Fold change vs veh, RB1 / RFU, PPFIA1 / Fold change vs veh, PPFIA1 / RFU, MAT2A / Fold change vs veh, MAT2A / RFU, CCT5 / Fold change vs veh, CCT5 / RFU, WDR92 / Fold change vs veh, WDR92 / RFU, CUX1 / Fold change vs veh, CUX1 / RFU, TTC7A / Fold change vs veh, TTC7A / RFU, TMEM135 / Fold change vs veh, TMEM135 / RFU, DEPTOR / Fold change vs veh, DEPTOR / RFU, CPM / Fold change vs veh, CPM / RFU, DNAJB6 / Fold change vs veh, DNAJB6 / RFU, CACNA2D3 / Fold change vs veh, CACNA2D3 / RFU, DTX4 / Fold change vs veh, DTX4 / RFU, TFCP2 / Fold change vs veh, TFCP2 / RFU, GMCL1 /// GMCL1P1 / Fold change vs veh, GMCL1 /// GMCL1P1 / RFU, AEBP2 / Fold change vs veh, AEBP2 / RFU, SNHG1 /// SNORD22 /// SNORD25 /// SNORD26 /// SNORD27 /// SNORD28 /// SNORD29 /// SNORD31 / Fold change vs veh, SNHG1 /// SNORD22 /// SNORD25 /// SNORD26 /// SNORD27 /// SNORD28 /// SNORD29 /// SNORD31 / Fold change (Aza/veh), C12orf56 (ProbeSet 11735607_a_at) / Fold change (ACY-1035/veh), C12orf56 (ProbeSet 11735607_a_at) / Fold change (Aza/veh), FGFR1OP (ProbeSet 11751329_s_at) / Fold change (ACY-1035/veh), FGFR1OP (ProbeSet 11751329_s_at) / Fold change (Aza/veh), VPS36 (ProbeSet 11739960_a_at) / Fold change (ACY-1035/veh), VPS36 (ProbeSet 11739960_a_at) / RFU SYPL1 (11715823_x_at) / Fold change /veh SYPL1 (11715823_x_at) / RFU IGFBP7 (11715501_s_at) / Fold change /veh IGFBP7 (11715501_s_at) / RFU REEP3 (11722064_at) / Fold change /veh REEP3 (11722064_at) / RFU IGLL1 (11728026_x_at) / Fold change /veh IGLL1 (11728026_x_at): dose or concentration left out as unconfirmed.

With `Nc1ccc(-c2cccs2)cc1NC(=O)c1ccc2c(c1)cc(C1CC1)n2CCN1CCOCC1` [ACY-1035], the “Fold change vs veh, TMEM33” value amounted to 0.87.
